Source: patent US20030061759A1, “Method for expelling harmful insects by volatilization of a chemical” (FUMAKILLA LIMITED, priority 2000, published 2003)
Like-named read-outs stand apart in the source and are kept apart here.

Experiments:
[1] = tested on: female adult stegomyia mosquitoes (Aedes albopictus); assay: Comparative debugging efficaciousness tests: bloodsucking prevention on rats, liquid type electric mosquito repellent utensil; assay type: in vivo; details: for efficacy of preventing mosquitoes from bloodsucking rats compared with transfluthrin: comparison in words; for Potency Ratio (Etoc 100), of IC50 Value / Potency Ratio (Etoc 100), of IC90 Value: relative to d,d-T80-prallethrin (Etoc) = 100; for IC50 Value (amount of volatilization at a 50% rate of bloodsucking prevention) / IC90 Value (amount of volatilization at a 90% rate of bloodsucking prevention): 13.2 m^2 room, 32° C., 30 min pre-fumigation, 2 hours after release, rats
Procedure: First, debugging efficaciousness tests were performed. For the criterion of judgment to compare degrees of efficaciousness, the effect of bloodsucking by mosquitoes of rats was adopted. Based on this, the following efficaciousness tests were carried out.
Comparative Debugging Efficaciousness Tests
Sample chemicals that were used were as follows: d,d-T80-prallethrin, transfluthrin, d1,d-T80-allethrin, d-T80-furamethrin, terallethrin and empenthrin; and pyrethroid technical products (sample chemicals) A, B, C, D, E, F, G and H.
Sample insects that were used were as follows: female adult stegomyia mosquitoes (Aedes albopictus) of Fumakilla (spelled phonetically) series 6th to 9th after emergence.
Sample chemical volatilizing form: A liquid type electric mosquito repellent utensil, a liquid agent (referred to below as “sample liquid”), obtained by diluting each of the sample chemicals with a solvent in a varying concentration, was allowed to volatilize.
Method used for tests: A test was conducted in two 8 straw mat (13.2 m^2) rooms, one as a treatment zone and the other as a non-treatment zone, both in a no-wind state and at a constant room temperature of 32° C.
In the treatment zone, three cages each with a rat confined therein were placed equidistantly spaced apart (about 20 cm) in the center of the test room. The mosquito repellent utensil placed on the floor surface of the center of the test room was preliminarily electrically energized for operation, and to thermally volatilize each of the sample liquids and fumigate the room therewith for a period of 30 minutes, and then about 100 (one hundred) of sample mosquitoes were released into the test room. After two hours following the release of the mosquitoes, all these sample mosquitoes were knocked-down by using a mosquito repellent mat, and the number of the mosquitoes which had bloodsucking was counted to find the proportion of bloodsucking.
In the non-treatment zone, also, after the 2 hours of bloodsucking, the proportion of bloodsucking was found.
A rate of bloodsucking prevention was derived from the proportions of bloodsucking in the treatment and non-treatment rooms as expressed by the following equation:
Rate of bloodsucking prevention =[(Total bloodsucking proportion in the non-treatment zone−Total bloodsucking proportion in the treatment zone)÷Total bloodsucking proportion in the non-treatment zone]×100
Also, on the basis of these amounts of volatilization and rates of bloodsucking prevention, an amount of volatilization at a 50% rate of bloodsucking prevention (IC50 value) and an amount of volatilization at a 90% rate of bloodsucking prevention (IC90 value) are found and shown in Table 1 below.

[2] = Comparative vapor pressure tests by gas chromatography; assay type: physicochemical
Procedure: 2. Comparative Vapor Pressure Tests
Next, by using gas chromatography, the various chemicals including sample chemicals A, B and C screened out by the foregoing comparative debugging efficaciousness tests were compared with d,d-T80-prallethrin (Etoc) as regards to their vapor pressures.
The gas chromatography test included as its temperature conditions an initial temperature of 60° C., and a temperature rise of 5° C. per minute up to a maximum temperature of 250° C., which was held for a period of 5 minutes, whereupon the process ended.
The filler used was made up of methyl silicon polymer, which is non-polar.
It should also be noted that as an internal standard substance use was made of sebacic acid-n-butyl and which was added to confirm that there was no deviation in retention time from one test to another.
Retention times for the various chemicals are listed in Table 2 in the order of shorter to longer.

[3] = tested on: female adult common house mosquitoes (Culex pipiens pallens); assay: Example 1: spontaneous volatilization efficaciousness test in 33 m^3 room (knockdown, KT50); assay type: in vivo
Description: Using sample chemicals A, B and C screened out by the preliminary tests, the efficaciousness of each of them when allowed to volatilize spontaneously was compared with that of transfluthrin when allowed to volatilize spontaneously.
Sample Preparations (Chemicals and Their Carriers According to the Present Invention):
(§1) A non-woven polypropylene fabric (made by Idemitsu Petroleum Chemicals Co., Ltd., product name RW2100, density 100 grams/m^2) of 50 cm×40 cm was coated with a hexane solution of 100 milliliter containing 1% (W/V) sample chemicals A, B, C and left to dry for 24 hours (effective amount of chemical: 1000 milligrams).
Comparative Preparation (Chemical and its Carrier):
as §1, with “of transfluthrin” for “sample chemicals A, B, C”
Testing Method: Efficaciousness Tests in an 8 Straw Mat room with a volume of 33 m^3
In the center of the test room with a volume of 33 m^3 (3.65 m×3.65 m×2.5 m high), each chemical carrier as prepared as above was placed as hung on a hook suspended in the center of the room to let the corresponding chemical volatilize spontaneously for a period of 3 hours. Thereafter, a triangular net casing (20 cm×20 cm×16.4 cm high) of 16 mesh nylon net containing 10 (ten) female adult common house mosquitoes (Culex pipiens pallens) was placed as hung in an area at each of the four corners (spaced from the wall surfaces at a distance of 90 cm) at a height of 150 cm from the room floor and was exposed to the chemical atmosphere.
A test was also conducted likewise for the comparative carrier.
After the tests ended, the samples chemicals were let to volatilize spontaneously in the room having a constant temperature of 30° C. The same test was repeated at given intervals and efficaciousness was then examined each time.

[4] = 60° C. initial, 5° C. per minute up to 250° C., non-polar methyl silicon polymer filler

C#CC(OC(=O)C1C(C=C(C)C)C1(C)C)/C(C)=C/CC (stereo not drawn) [Empenthrin]
efficacy of preventing mosquitoes from bloodsucking rats compared with transfluthrin [1]: lower effects of preventing mosquitoes from bloodsucking rats than transfluthrin
Potency Ratio (Etoc 100), of IC50 Value [1]: 0.7
Potency Ratio (Etoc 100), of IC90 Value [1]: 1.2
Retention Time (gas chromatography, as comparison of vapor pressure) [2, 4]: 20.1 min

CC(C)=CC1C(C(=O)OCc2cccc(Oc3ccccc3)c2)C1(C)C (stereo not drawn) [Phenothorin, reference compound]
Retention Time (gas chromatography, as comparison of vapor pressure) [2]: 33.7 min

CC=CC1C(C(=O)OCc2c(F)c(F)c(COC)c(F)c2F)C1(C)C (stereo not drawn) [Sample Chemical A, 2,3,5,6-tetrafluoro-4-methoxymethylbenzyl 3-(1-propenyl)-2,2-dimethylcyclopropanecarboxylate]
efficacy of preventing mosquitoes from bloodsucking rats compared with transfluthrin [1]: more efficacious than transfluthrin
Potency Ratio (Etoc 100), of IC50 Value [1]: 197.1
Potency Ratio (Etoc 100), of IC90 Value [1]: 496.8
Retention Time (gas chromatography, as comparison of vapor pressure) [2, 4]: 25.1 min
vapor pressure compared with transfluthrin and d,d-T80-prallethrin ([2]; from GC retention times): lower than transfluthrin, but higher than d,d-T80-prallethrin
potency and retention of potency compared with transfluthrin ([3]; comparison in words): higher in potency and also longer in retention time than transfluthrin
KT50 ([3]; elapsed time 0 hr): 6.53 min
KT50 ([3]; elapsed time 168 hr): 4.52 min
KT50 ([3]; elapsed time 336 hr): 5.38 min
KT50 ([3]; elapsed time 504 hr): 6.28 min
KT50 ([3]; elapsed time 672 hr): 7.25 min
KT50 ([3]; elapsed time 864 hr): 9.60 min
KT50 ([3]; elapsed time 1056 hr): 8.50 min
KT50 ([3]; elapsed time 1200 hr): 8.80 min
KT50 ([3]; elapsed time 1344 hr): 9.70 min
KT50 ([3]; elapsed time 1536 hr): 8.97 min
KT50 ([3]; elapsed time 1680 hr): 11.60 min
KT50 ([3]; elapsed time 1848 hr): 12.50 min
KT50 ([3]; elapsed time 2016 hr): 11.50 min
KT50 ([3]; elapsed time 2208 hr): 13.60 min
KT50 ([3]; elapsed time 2352 hr): 16.80 min
KT50 ([3]; elapsed time 2520 hr): 17.20 min
KT50 ([3]; elapsed time 2688 hr): 18.60 min
KT50 ([3]; elapsed time 2856 hr): 17.70 min
KT50 ([3]; elapsed time 3024 hr): 24.60 min
KT50 ([3]; elapsed time 3192 hr): 27.80 min
KT50 ([3]; elapsed time 3360 hr): 31.60 min

COc1c(F)c(F)c(COC(=O)C2C(C=C(Cl)Cl)C2(C)C)c(F)c1F (stereo not drawn) [Sample Chemical D, 2,3,5,6-tetrafluoro-4-methoxybenzyl 3-(2,2-dichlorovinyl)-2,2-dimethylcyclopropanecarboxylate]
Potency Ratio (Etoc 100), of IC50 Value [1]: 17.5
Potency Ratio (Etoc 100), of IC90 Value [1]: 21.3

COCc1c(F)c(F)c(COC(=O)C2C(C=C(C)C)C2(C)C)c(F)c1F (stereo not drawn) [Sample Chemical E, 2,3,5,6-tetrafluoro-4-methoxymethylbenzyl 3-(2-methyl-1-propenyl)-2,2-dimethylcyclopropanecarboxylate]
Potency Ratio (Etoc 100), of IC50 Value [1]: 13.7
Potency Ratio (Etoc 100), of IC90 Value [1]: 22.4

CC(C)=CC1C(C(=O)OCc2c(F)c(F)c(C)c(F)c2F)C1(C)C (stereo not drawn) [Sample Chemical F, 2,3,5,6-tetrafluoro-4-methylbenzyl 3-(2-methyl-1-propenyl)-2,2-dimethylcyclopropanecarboxylate]
Potency Ratio (Etoc 100), of IC50 Value [1]: 6.6
Potency Ratio (Etoc 100), of IC90 Value [1]: 5.4

CC=CC1C(C(=O)OCc2c(F)c(F)c(C)c(F)c2F)C1(C)C (stereo not drawn) [Sample Chemical G, 2,3,5,6-tetrafluoro-4-methylbenzyl 3-(1-propenyl)-2,2-dimethylcyclopropanecarboxylate]
Potency Ratio (Etoc 100), of IC50 Value [1]: 2.8
Potency Ratio (Etoc 100), of IC90 Value [1]: 4.3

C#CC(OC(=O)C1C(C=C(F)Cl)C1(C)C)C(C)=CCC (stereo not drawn) [Sample Chemical H, 1-ethynyl-2-methyl-2-pentenyl 3-(2-chloro-2-fluorovinyl)-2,2-dimethylcyclopropanecarboxylate]
Potency Ratio (Etoc 100), of IC50 Value [1]: 2.0
Potency Ratio (Etoc 100), of IC90 Value [1]: 3.1

C=CCC1=C(C)C(OC(=O)C2C(C)(C)C2(C)C)CC1=O (stereo not drawn) [Terallethrin]
IC50 Value (amount of volatilization at a 50% rate of bloodsucking prevention) [1]: 0.3650 mg/h
IC90 Value (amount of volatilization at a 90% rate of bloodsucking prevention) [1]: 1.028 mg/h
efficacy of preventing mosquitoes from bloodsucking rats compared with transfluthrin [1]: lower effects of preventing mosquitoes from bloodsucking rats than transfluthrin
Potency Ratio (Etoc 100), of IC50 Value [1]: 2.2
Potency Ratio (Etoc 100), of IC90 Value [1]: 3.8
Retention Time (gas chromatography, as comparison of vapor pressure) [2]: 23.3 min

C=CCC1=C(C)C(OC(=O)C2C(C=C(C)C)C2(C)C)CC1=O (stereo not drawn) [d1,d-T80-allethrin]
efficacy of preventing mosquitoes from bloodsucking rats compared with transfluthrin [1]: lower effects of preventing mosquitoes from bloodsucking rats than transfluthrin
Potency Ratio (Etoc 100), of IC50 Value [1]: 12.9
Potency Ratio (Etoc 100), of IC90 Value [1]: 9.5
Retention Time (gas chromatography, as comparison of vapor pressure) [2]: 26.6 min

C#CCC1=C(C)C(OC(=O)C2C(C=C(C)C)C2(C)C)CC1=O (stereo not drawn) [d,d-T80-prallethrin]
IC50 Value (amount of volatilization at a 50% rate of bloodsucking prevention) [1]: 0.0081 mg/h
IC90 Value (amount of volatilization at a 90% rate of bloodsucking prevention) [1]: 0.039 mg/h
efficacy of preventing mosquitoes from bloodsucking rats compared with transfluthrin [1]: more efficacious than transfluthrin
Potency Ratio (Etoc 100), of IC50 Value [1]: 100.0
Potency Ratio (Etoc 100), of IC90 Value [1]: 100.0
Retention Time (gas chromatography, as comparison of vapor pressure) [2, 4]: 27.1 min

C#CCc1ccc(COC(=O)C2C(C=C(C)C)C2(C)C)o1 (stereo not drawn) [d-T80-furamethrin]
IC50 Value (amount of volatilization at a 50% rate of bloodsucking prevention) [1]: 0.1170 mg/h
IC90 Value (amount of volatilization at a 90% rate of bloodsucking prevention) [1]: 0.270 mg/h
efficacy of preventing mosquitoes from bloodsucking rats compared with transfluthrin [1]: lower effects of preventing mosquitoes from bloodsucking rats than transfluthrin
Potency Ratio (Etoc 100), of IC50 Value [1]: 6.9
Potency Ratio (Etoc 100), of IC90 Value [1]: 14.4
